Reference: PubChem BioAssay (NCI)
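96-well plates; 48 h exposure; 5 concentrations. Endpoints by linear interpolation between flanking doses. Not reached: highest tested concentration assigned. TGI marks complete inhibition of growth.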

Legend:
Test in all cases: NCI-60 cell line screen, 48 h
HCT-15 colon = tested on: HCT-15 colon
NCI-H226 lung = tested on: NCI-H226 lung
KM12 colon = tested on: KM12 colon
IGROV1 ovarian = tested on: IGROV1 ovarian
SF-539 CNS = tested on: SF-539 CNS
SK-MEL-5 melanoma = tested on: SK-MEL-5 melanoma
HT29 colon = tested on: HT29 colon
NCI-H522 lung = tested on: NCI-H522 lung
HOP-62 NSCLC = tested on: HOP-62 NSCLC
SK-OV-3 ovarian = tested on: SK-OV-3 ovarian
OVCAR-8 ovarian = tested on: OVCAR-8 ovarian
M14 melanoma = tested on: M14 melanoma
MDA-MB-435 = tested on: MDA-MB-435
DU-145 prostate = tested on: DU-145 prostate
PC-3 prostate = tested on: PC-3 prostate
TK-10 renal = tested on: TK-10 renal
SNB-75 CNS = tested on: SNB-75 CNS

CCOC(=O)/C(=C\c1ccccc1)C(=O)O
TGI (HCT-15 colon): > 100 µM | TGI (NCI-H226 lung): > 100 µM | TGI (KM12 colon): > 100 µM | TGI (IGROV1 ovarian): > 100 µM | TGI (SF-539 CNS): > 100 µM | TGI (SK-MEL-5 melanoma): > 100 µM | TGI (HT29 colon): > 100 µM | TGI (NCI-H522 lung): > 100 µM | TGI (HOP-62 NSCLC): > 100 µM | TGI (SK-OV-3 ovarian): > 100 µM | TGI (OVCAR-8 ovarian): > 100 µM | TGI (M14 melanoma): > 100 µM

OC1(c2ccc(Cl)cc2)C(N2CCCC2)c2ccccc2C2=NCCN21 (stereo not given)
TGI (MDA-MB-435): 86.7 µM | TGI (DU-145 prostate): > 100 µM | TGI (HCT-15 colon): > 100 µM | TGI (KM12 colon): 60 µM | TGI (IGROV1 ovarian): 52.7 µM | TGI (SF-539 CNS): 39.4 µM | TGI (SK-MEL-5 melanoma): 28.4 µM | TGI (PC-3 prostate): > 100 µM | TGI (HT29 colon): 32.4 µM | TGI (HOP-62 NSCLC): > 100 µM | TGI (TK-10 renal): 40 µM | TGI (SK-OV-3 ovarian): 57.6 µM | TGI (OVCAR-8 ovarian): 58.8 µM | TGI (M14 melanoma): 31.7 µM

CCOC(=O)c1cc2c([nH]1)c(O)cc1c2ccn1Cc1ccccc1
TGI (MDA-MB-435): 31 µM | TGI (DU-145 prostate): 34.3 µM | TGI (SNB-75 CNS): 50.2 µM | TGI (HCT-15 colon): 30.5 µM | TGI (NCI-H226 lung): 36.9 µM | TGI (KM12 colon): 24.8 µM | TGI (IGROV1 ovarian): 54.3 µM | TGI (SF-539 CNS): 40.2 µM | TGI (SK-MEL-5 melanoma): 24.5 µM | TGI (PC-3 prostate): 34.2 µM | TGI (HT29 colon): 30.2 µM | TGI (HOP-62 NSCLC): 38.7 µM | TGI (SK-OV-3 ovarian): 39.5 µM | TGI (OVCAR-8 ovarian): 33.4 µM | TGI (M14 melanoma): 47.5 µM

Cc1cccc(C(C)C)c1NC(=O)/C(Cc1c([N+](=O)[O-])cccc1[N+](=O)[O-])=N/NC(=O)CC#N
TGI (SNB-75 CNS): > 100 µM | TGI (HCT-15 colon): > 100 µM | TGI (NCI-H226 lung): > 100 µM | TGI (KM12 colon): > 100 µM | TGI (IGROV1 ovarian): > 100 µM | TGI (SF-539 CNS): > 100 µM | TGI (SK-MEL-5 melanoma): > 100 µM | TGI (HT29 colon): > 100 µM | TGI (NCI-H522 lung): > 100 µM | TGI (TK-10 renal): > 100 µM | TGI (SK-OV-3 ovarian): > 100 µM | TGI (M14 melanoma): > 100 µM

O=c1[nH]c(=O)n(CCOc2ccccc2)cc1Nc1ccccc1
TGI (MDA-MB-435): > 100 µM | TGI (DU-145 prostate): > 100 µM | TGI (HCT-15 colon): > 100 µM | TGI (KM12 colon): > 100 µM | TGI (IGROV1 ovarian): > 100 µM | TGI (SK-MEL-5 melanoma): > 100 µM | TGI (PC-3 prostate): > 100 µM | TGI (HT29 colon): > 100 µM | TGI (NCI-H522 lung): > 100 µM | TGI (HOP-62 NSCLC): 87.4 µM | TGI (M14 melanoma): > 100 µM

O=C1N[C@H]2c3c(Cl)sc(Cl)c3[C@@H](O)[C@H]2O1
TGI (MDA-MB-435): > 100 µM | TGI (DU-145 prostate): > 100 µM | TGI (SNB-75 CNS): > 100 µM | TGI (HCT-15 colon): > 100 µM | TGI (KM12 colon): > 100 µM | TGI (IGROV1 ovarian): > 100 µM | TGI (SF-539 CNS): > 100 µM | TGI (SK-MEL-5 melanoma): > 100 µM | TGI (PC-3 prostate): > 100 µM | TGI (HT29 colon): > 100 µM | TGI (HOP-62 NSCLC): > 100 µM | TGI (TK-10 renal): > 100 µM | TGI (SK-OV-3 ovarian): > 100 µM | TGI (OVCAR-8 ovarian): > 100 µM | TGI (M14 melanoma): > 100 µM

COC(=O)C1=C(O)C(C(=O)OC)[C@]2(O)[C@H](C(=O)OC)[C@H]1C[C@@H](c1ccc(OC)c(OC)c1)[C@H]2C(=O)OC (stereo not given in full)
TGI (MDA-MB-435): 44.2 µM | TGI (DU-145 prostate): 93.8 µM | TGI (SNB-75 CNS): 46 µM | TGI (HCT-15 colon): 36.5 µM | TGI (NCI-H226 lung): 29 µM | TGI (KM12 colon): 54.5 µM | TGI (IGROV1 ovarian): > 100 µM | TGI (SF-539 CNS): 20.7 µM | TGI (SK-MEL-5 melanoma): > 100 µM | TGI (PC-3 prostate): > 100 µM | TGI (HT29 colon): > 100 µM | TGI (HOP-62 NSCLC): > 100 µM | TGI (TK-10 renal): > 100 µM | TGI (SK-OV-3 ovarian): 68.2 µM | TGI (OVCAR-8 ovarian): 31.1 µM | TGI (M14 melanoma): > 100 µM

CC(=O)Oc1cc(Cl)c(C)c2c1[C@H]1CC[C@]3(C)[C@@H](OC(C)=O)CC[C@H]3[C@@H]1CC2
TGI (MDA-MB-435): > 100 µM | TGI (DU-145 prostate): > 100 µM | TGI (SNB-75 CNS): > 100 µM | TGI (HCT-15 colon): > 100 µM | TGI (NCI-H226 lung): > 100 µM | TGI (KM12 colon): > 100 µM | TGI (IGROV1 ovarian): > 100 µM | TGI (SF-539 CNS): > 100 µM | TGI (SK-MEL-5 melanoma): > 100 µM | TGI (HT29 colon): > 100 µM | TGI (NCI-H522 lung): > 100 µM | TGI (HOP-62 NSCLC): > 100 µM | TGI (TK-10 renal): > 100 µM | TGI (OVCAR-8 ovarian): > 100 µM | TGI (M14 melanoma): > 100 µM

O=c1c2ccccc2[nH]c2c(Cl)cc(Cl)c(NC3CCCCC3)c12
TGI (MDA-MB-435): 43.5 µM | TGI (SNB-75 CNS): 83.6 µM | TGI (HCT-15 colon): > 100 µM | TGI (NCI-H226 lung): 44.4 µM | TGI (KM12 colon): 32.4 µM | TGI (IGROV1 ovarian): 96.2 µM | TGI (SF-539 CNS): 57.8 µM | TGI (SK-MEL-5 melanoma): > 100 µM | TGI (PC-3 prostate): 60.1 µM | TGI (HT29 colon): 30.6 µM | TGI (NCI-H522 lung): 44 µM | TGI (HOP-62 NSCLC): 60.8 µM | TGI (TK-10 renal): 61.3 µM | TGI (SK-OV-3 ovarian): > 100 µM | TGI (OVCAR-8 ovarian): 44.8 µM | TGI (M14 melanoma): 47.7 µM

O=C(CCN(C(=O)O)S(=O)(=O)c1ccc(NC(=O)c2ccccc2)cc1)NC1CCCCC1
TGI (SNB-75 CNS): > 100 µM | TGI (HCT-15 colon): > 100 µM | TGI (NCI-H226 lung): > 100 µM | TGI (KM12 colon): > 100 µM | TGI (IGROV1 ovarian): > 100 µM | TGI (SF-539 CNS): > 100 µM | TGI (SK-MEL-5 melanoma): > 100 µM | TGI (HT29 colon): 56.8 µM | TGI (NCI-H522 lung): > 100 µM | TGI (HOP-62 NSCLC): > 100 µM | TGI (TK-10 renal): > 100 µM | TGI (SK-OV-3 ovarian): > 100 µM | TGI (OVCAR-8 ovarian): > 100 µM | TGI (M14 melanoma): > 100 µM

COc1ccccc1NC(=S)Nc1cc(C)cc(C)n1
TGI (MDA-MB-435): > 100 µM | TGI (DU-145 prostate): > 100 µM | TGI (SNB-75 CNS): > 100 µM | TGI (HCT-15 colon): > 100 µM | TGI (NCI-H226 lung): > 100 µM | TGI (KM12 colon): > 100 µM | TGI (IGROV1 ovarian): > 100 µM | TGI (SF-539 CNS): > 100 µM | TGI (SK-MEL-5 melanoma): > 100 µM | TGI (PC-3 prostate): > 100 µM | TGI (HT29 colon): > 100 µM | TGI (HOP-62 NSCLC): > 100 µM | TGI (TK-10 renal): > 100 µM | TGI (SK-OV-3 ovarian): > 100 µM | TGI (OVCAR-8 ovarian): > 100 µM | TGI (M14 melanoma): > 100 µM

COC(=O)C1=C(O)C(C(=O)OC)[C@]2(O)[C@H](C(=O)OC)[C@H]1C[C@@H](c1ccc(Cl)cc1)[C@H]2C(=O)OC (stereo not given in full)
TGI (MDA-MB-435): 25.4 µM | TGI (DU-145 prostate): 30.4 µM | TGI (SNB-75 CNS): 38.7 µM | TGI (HCT-15 colon): 47.7 µM | TGI (NCI-H226 lung): 38.2 µM | TGI (KM12 colon): 46.6 µM | TGI (IGROV1 ovarian): > 100 µM | TGI (SF-539 CNS): 20.9 µM | TGI (SK-MEL-5 melanoma): 20.5 µM | TGI (PC-3 prostate): 18.8 µM | TGI (HT29 colon): 32 µM | TGI (HOP-62 NSCLC): 24 µM | TGI (TK-10 renal): 33.5 µM | TGI (SK-OV-3 ovarian): 23.4 µM | TGI (OVCAR-8 ovarian): > 100 µM | TGI (M14 melanoma): 19.5 µM

Cc1cc(C)c2c(O)c(S(=O)(=O)c3ccc(Cl)cc3)c(=O)oc2c1
TGI (MDA-MB-435): > 100 µM | TGI (DU-145 prostate): > 100 µM | TGI (SNB-75 CNS): > 100 µM | TGI (HCT-15 colon): > 100 µM | TGI (NCI-H226 lung): > 100 µM | TGI (KM12 colon): > 100 µM | TGI (IGROV1 ovarian): > 100 µM | TGI (SF-539 CNS): > 100 µM | TGI (SK-MEL-5 melanoma): > 100 µM | TGI (PC-3 prostate): > 100 µM | TGI (HT29 colon): > 100 µM | TGI (HOP-62 NSCLC): > 100 µM | TGI (SK-OV-3 ovarian): > 100 µM | TGI (OVCAR-8 ovarian): > 100 µM | TGI (M14 melanoma): > 100 µM

O=C1NC(=O)C(CCC(=O)c2ccc3ccccc3c2)C(=O)N1
TGI (SNB-75 CNS): > 100 µM | TGI (HCT-15 colon): > 100 µM | TGI (NCI-H226 lung): > 100 µM | TGI (KM12 colon): > 100 µM | TGI (IGROV1 ovarian): > 100 µM | TGI (SF-539 CNS): > 100 µM | TGI (SK-MEL-5 melanoma): > 100 µM | TGI (HT29 colon): > 100 µM | TGI (NCI-H522 lung): 38.5 µM | TGI (HOP-62 NSCLC): > 100 µM | TGI (TK-10 renal): > 100 µM | TGI (SK-OV-3 ovarian): > 100 µM | TGI (OVCAR-8 ovarian): > 100 µM | TGI (M14 melanoma): > 100 µM

Oc1c2cc(Cl)cc1COCc1cc(Cl)cc(c1O)COCc1cc(Cl)cc(c1O)COC2
TGI (MDA-MB-435): > 100 µM | TGI (DU-145 prostate): > 100 µM | TGI (SNB-75 CNS): 63.4 µM | TGI (HCT-15 colon): > 100 µM | TGI (NCI-H226 lung): > 100 µM | TGI (KM12 colon): > 100 µM | TGI (IGROV1 ovarian): > 100 µM | TGI (SK-MEL-5 melanoma): > 100 µM | TGI (PC-3 prostate): > 100 µM | TGI (HOP-62 NSCLC): > 100 µM | TGI (TK-10 renal): > 100 µM | TGI (SK-OV-3 ovarian): > 100 µM | TGI (OVCAR-8 ovarian): 32.9 µM | TGI (M14 melanoma): 64.7 µM
